Key:
[1] = Crystal
[2] = molar heat capacity at saturation pressure

O=C1CCCCC1C1(O)CCCCC1 (centres undefined) [1'-hydroxy-[1,1'-bicyclohexyl]-2-one]
Conditions | mass density [kg/m3]
[1], 292 K, 101.33 kPa, Pycnometric method | 1140

[1]
Conditions | Triple point temperature [K]
Adiabatic calorimetry | 306.75
DSC | 306.9

[2]
Conditions | molar heat capacity [J/K/mol]
5.16 K, Crystal | 0.533
5.41 K, Crystal | 0.6159
5.68 K, Crystal | 0.7141
5.97 K, Crystal | 0.8182
6.29 K, Crystal | 0.9686
6.62 K, Crystal | 1.137
6.94 K, Crystal | 1.337
7.27 K, Crystal | 1.564
7.69 K, Crystal | 1.849
8.09 K, Crystal | 2.166
8.51 K, Crystal | 2.524
8.97 K, Crystal | 2.903
9.4 K, Crystal | 3.307
9.86 K, Crystal | 3.764
10.32 K, Crystal | 4.247
10.8 K, Crystal | 4.745
11.34 K, Crystal | 5.386
11.91 K, Crystal | 6.078
12.5 K, Crystal | 6.783
13.09 K, Crystal | 7.518
13.65 K, Crystal | 8.27
14.26 K, Crystal | 9.088
14.87 K, Crystal | 9.894
15.47 K, Crystal | 10.71
16.12 K, Crystal | 11.66
16.79 K, Crystal | 12.66
17.47 K, Crystal | 13.66
18.17 K, Crystal | 14.72
18.86 K, Crystal | 15.8
19.61 K, Crystal | 16.87
20.52 K, Crystal | 18.24
21.52 K, Crystal | 19.81
22.54 K, Crystal | 21.36
23.56 K, Crystal | 22.97
24.68 K, Crystal | 24.67
25.89 K, Crystal | 26.58
27.12 K, Crystal | 28.34
28.37 K, Crystal | 30.15
29.78 K, Crystal | 32.21
31.31 K, Crystal | 34.26
32.81 K, Crystal | 36.25
34.25 K, Crystal | 38.29
35.69 K, Crystal | 40.02
37.25 K, Crystal | 42.05
38.95 K, Crystal | 44.28
40.79 K, Crystal | 46.36
42.67 K, Crystal | 48.72
44.41 K, Crystal | 50.59
46.25 K, Crystal | 52.77
48.19 K, Crystal | 54.67
50.08 K, Crystal | 56.63
51.93 K, Crystal | 58.46
53.83 K, Crystal | 60.66
55.82 K, Crystal | 62.66
57.81 K, Crystal | 64.39
59.76 K, Crystal | 66.21
61.73 K, Crystal | 68.03
63.72 K, Crystal | 69.96
65.71 K, Crystal | 71.5
67.67 K, Crystal | 73.51
69.76 K, Crystal | 75.35
72.08 K, Crystal | 77.34
74.55 K, Crystal | 79.53
76.99 K, Crystal | 81.52
79.43 K, Crystal | 83.56
81.9 K, Crystal | 85.64
84.37 K, Crystal | 87.8
86.86 K, Crystal | 89.8
89.34 K, Crystal | 92.04
91.79 K, Crystal | 93.87
94.27 K, Crystal | 96.03
96.74 K, Crystal | 97.94
99.23 K, Crystal | 100.3
99.86 K, Crystal | 100.6
101.72 K, Crystal | 102.1
101.89 K, Crystal | 102.2
103.96 K, Crystal | 103.9
104.22 K, Crystal | 104.1
106 K, Crystal | 105.5
108.09 K, Crystal | 107.2
110.22 K, Crystal | 108.8
112.32 K, Crystal | 110.3
114.47 K, Crystal | 112.2
116.67 K, Crystal | 113.7
118.84 K, Crystal | 115.6
120.97 K, Crystal | 117
123.07 K, Crystal | 118.7
125.14 K, Crystal | 120.4
127.19 K, Crystal | 122.1
129.21 K, Crystal | 123.6
131.21 K, Crystal | 125.2
133.17 K, Crystal | 126.7
135.12 K, Crystal | 128.2
137.05 K, Crystal | 129.6
138.96 K, Crystal | 131.3
141 K, Crystal | 132.8
143.17 K, Crystal | 134.4
145.31 K, Crystal | 136.2
147.42 K, Crystal | 137.7
149.52 K, Crystal | 139.4
149.69 K, Crystal | 139.5
151.77 K, Crystal | 141.3
153.83 K, Crystal | 142.8
155.94 K, Crystal | 144.7
158.11 K, Crystal | 146.2
160.26 K, Crystal | 148.1
162.4 K, Crystal | 149.6
164.58 K, Crystal | 151.5
166.82 K, Crystal | 153.1
169.05 K, Crystal | 154.8
171.25 K, Crystal | 156.7
173.43 K, Crystal | 158.6
175.59 K, Crystal | 160.1
177.74 K, Crystal | 162
179.87 K, Crystal | 163.8
181.98 K, Crystal | 165.4
184.22 K, Crystal | 167.4
186.58 K, Crystal | 169.1
188.92 K, Crystal | 171.2
191.24 K, Crystal | 172.9
193.62 K, Crystal | 174.9
196.06 K, Crystal | 176.6
198.49 K, Crystal | 179
200.89 K, Crystal | 180.8
203.28 K, Crystal | 182.7
205.65 K, Crystal | 184.8
208.08 K, Crystal | 186.7
210.57 K, Crystal | 188.6
213.04 K, Crystal | 191
215.63 K, Crystal | 192.9
218.36 K, Crystal | 195.1
220.54 K, Crystal | 197.1
223.28 K, Crystal | 199.4
226 K, Crystal | 201.5
228.71 K, Crystal | 203.8
231.37 K, Crystal | 206.2
234.03 K, Crystal | 209.2
236.67 K, Crystal | 210.8
239.45 K, Crystal | 214
242.37 K, Crystal | 216.3
245.3 K, Crystal | 218.9
248.2 K, Crystal | 221.7
251.09 K, Crystal | 224
253.97 K, Crystal | 227.2
256.81 K, Crystal | 229.6
259.61 K, Crystal | 232.7
262.37 K, Crystal | 235.2
265.1 K, Crystal | 238.8
267.8 K, Crystal | 241.5
270.46 K, Crystal | 244.1
273.22 K, Crystal | 247.9
274.83 K, Crystal | 249.2
276.1 K, Crystal | 250.8
277.41 K, Crystal | 252.4
278.95 K, Crystal | 254.3
279.97 K, Crystal | 255.8
281.77 K, Crystal | 257.8
282.51 K, Crystal | 258.4
284.57 K, Crystal | 261.4
285.02 K, Crystal | 262
287.35 K, Crystal | 264.2
287.51 K, Crystal | 264.9
289.97 K, Crystal | 267.6
290.11 K, Crystal | 268.6
292.4 K, Crystal | 271.5
292.83 K, Crystal | 271.4
294.18 K, Crystal | 273.5
295.66 K, Crystal | 275.3
308.34 K, Liquid | 351
310.04 K, Liquid | 351.5
311.73 K, Liquid | 353.4
